Measured values from publication PMC7369637, “Inhibition of Resistance-Refractory P. falciparum Kinase PKG Delivers Prophylactic, Blood Stage, and Transmission-Blocking Antiplasmodial Activity” (Cell Chemical Biology, 2020).

Legend:
in vitro = conditions: human
ed. Dd2-B2 TKL3I1250M = assay: 72-h ABS assay, CRISPR/Cas9-edited line; format: cell-based; conditions: Plasmodium falciparum, parent Dd2-B2 wild-type
Protocol: (§1) Synchronicity was achieved using three rounds of sorbitol treatment on early rings, spaced 48 h apart, followed by magnetic purification of segmented schizonts following the final sorbitol treatment. Parasites were highly synchronous to within a 3 h window of development. Assays were repeated on at least three independent occasions (each with technical duplicates) and statistical significance was assessed using Mann Whitney U tests.
(§2) The resulting MMV030084-resistant parasites were cloned by limiting dilution ([Baker et al., 2017]) to obtain genetically homogenous cultures for further phenotyping and whole-genome sequencing. A second round of […]. […] Drug susceptibility of resistant lines was assessed using a 72 h ABS assay as described above, and a Mann Whitney U test was applied to assess statistically significant differences.
(§3) A CRISPR/Cas9 targeted gene editing strategy using an all-in-one plasmid approach was applied to introduce T1268R, I1250M and T1268R+I1250M in wild-type Dd2-B2 parasites or to produce a TKL3 KO line by inserting a stop codon and frameshift at amino acid position 1268. […] WR99210 (2.5 nM) was added to the culture medium 24 h after electroporation to select for successfully transfected parasites and was maintained in the medium until edited parasites were detected. […]

ed. Dd2-B2 TKL3T1268R = assay: 72-h ABS assay, CRISPR/Cas9-edited line; format: cell-based; conditions: Plasmodium falciparum, parent Dd2-B2 wild-type
Protocol: as §1, §2, §3

[1] = molecular target: T1, human protein extracts (Mixed: HEK-293/ K-562/ Placenta/ Hep G2) (Homo sapiens, UniProt P08240); assay: Chemoproteomic profiling, MS/MS data for all quantified proteins (Table S1 E3); format: binding
T1 construct: endogenous in cells; host or cells: mixture of HEK-293, K-562, Hep G2 and placenta
Protocol: (§4) Human extracts were prepared as described ([Bantscheff et al., 2011]). Briefly, frozen cell pellets were homogenized in lysis buffer (50 mM Tris-HCl, 0.8% Igepal-CA630, 5% glycerol, 150 mM NaCl, 1.5 mM MgCl2, 25 mM sodium fluoride, 1 mM sodium vanadate, 1 mM DTT, pH 7.5). One cOmplete EDTA-free protease inhibitor tablet (Roche) was added per 25 ml. Samples were dispersed using a Dounce homogenizer, rotated for 30 min at 4°C, and centrifuged at 20,000g for 10 min at 4°C. Supernatants were then recentrifuged at 145,000g for 1 h at 4°C. Protein concentrations were determined using a Bradford assay (BioRad). Aliquots were snap frozen in liquid nitrogen and stored at −80°C.
(§5) Kinobeads were prepared by immobilizing Bis-(III) indolyl-maleimide, purvalanol B, staurosporine and CZC8004, and the analogs of PD173955, sunitinib and vandetanib on NHS-activated Sepharose 4 beads (Amersham) ([Bantscheff et al., 2007]). […] The chemoproteomic affinity-capturing experiments were performed as previously described ([Bantscheff et al., 2011]). Briefly, beads were washed and equilibrated in lysis buffer (50 mM Tris-HCl, pH 7.4, 0.4 % Igepal-CA630, 1.5 mM MgCl2, 5 % Glycerol, 150 mM NaCl, 25 mM NaF, 1 mM Na3VO4, 1 mM DTT, and one cOmplete EDTA-free protease inhibitor tablet (Roche) per 25 mL). […] 10 samples were measured in parallel (TMT 10-plex ([Werner et al., 2014])) to generate values for the affinity of the beads to the bound proteins (“depletion” values, 4 samples) and to generate IC50 values (6 samples) in a single experiment. Apparent dissociation constants were determined after accounting for protein depletion by the beads ([Bantscheff et al., 2011]). […]
(§6) Proteins were digested according to a modified single pot solid-phase sample preparation (SP3) protocol ([Hughes et al., 2014]). Peptides were labeled with isobaric mass tags (Thermo Fisher Scientific, Waltham, MA) using 10-plex TMT reagents, enabling relative quantification of 10 conditions in a single experiment ([Werner et al., 2014]). […]

[2] = molecular target: T2, human protein extracts (Mixed: HEK-293/ K-562/ Placenta/ Hep G2) (Homo sapiens, UniProt Q7L576); assay: as above; format: binding
T2 construct: endogenous in cells; host or cells: mixture of HEK-293, K-562, Hep G2 and placenta
Protocol: as §4, §5, §6

[3] = molecular target: T3, human protein extracts (Mixed: HEK-293/ K-562/ Placenta/ Hep G2) (Homo sapiens, UniProt P21127); assay: as above; format: binding
T3 construct: endogenous in cells; host or cells: mixture of HEK-293, K-562, Hep G2 and placenta
Protocol: as §4, §5, §6

T1 sequence (P08240 whole entry): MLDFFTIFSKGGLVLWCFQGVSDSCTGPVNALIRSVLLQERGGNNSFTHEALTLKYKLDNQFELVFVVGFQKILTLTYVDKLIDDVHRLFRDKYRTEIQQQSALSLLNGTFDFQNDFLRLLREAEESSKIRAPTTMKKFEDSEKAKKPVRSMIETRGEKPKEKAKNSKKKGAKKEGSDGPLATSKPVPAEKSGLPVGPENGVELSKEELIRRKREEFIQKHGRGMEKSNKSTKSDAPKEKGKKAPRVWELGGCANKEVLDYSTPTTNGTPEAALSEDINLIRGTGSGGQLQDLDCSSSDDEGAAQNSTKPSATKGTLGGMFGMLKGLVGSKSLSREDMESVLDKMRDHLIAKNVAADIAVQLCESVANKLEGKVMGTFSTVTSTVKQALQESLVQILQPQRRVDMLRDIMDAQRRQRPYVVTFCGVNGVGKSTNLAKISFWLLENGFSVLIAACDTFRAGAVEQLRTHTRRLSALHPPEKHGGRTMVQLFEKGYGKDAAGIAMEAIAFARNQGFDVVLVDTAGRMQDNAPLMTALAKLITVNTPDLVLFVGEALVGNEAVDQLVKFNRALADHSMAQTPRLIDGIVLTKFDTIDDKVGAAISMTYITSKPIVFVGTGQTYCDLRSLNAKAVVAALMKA
T2 sequence (Q7L576 whole entry): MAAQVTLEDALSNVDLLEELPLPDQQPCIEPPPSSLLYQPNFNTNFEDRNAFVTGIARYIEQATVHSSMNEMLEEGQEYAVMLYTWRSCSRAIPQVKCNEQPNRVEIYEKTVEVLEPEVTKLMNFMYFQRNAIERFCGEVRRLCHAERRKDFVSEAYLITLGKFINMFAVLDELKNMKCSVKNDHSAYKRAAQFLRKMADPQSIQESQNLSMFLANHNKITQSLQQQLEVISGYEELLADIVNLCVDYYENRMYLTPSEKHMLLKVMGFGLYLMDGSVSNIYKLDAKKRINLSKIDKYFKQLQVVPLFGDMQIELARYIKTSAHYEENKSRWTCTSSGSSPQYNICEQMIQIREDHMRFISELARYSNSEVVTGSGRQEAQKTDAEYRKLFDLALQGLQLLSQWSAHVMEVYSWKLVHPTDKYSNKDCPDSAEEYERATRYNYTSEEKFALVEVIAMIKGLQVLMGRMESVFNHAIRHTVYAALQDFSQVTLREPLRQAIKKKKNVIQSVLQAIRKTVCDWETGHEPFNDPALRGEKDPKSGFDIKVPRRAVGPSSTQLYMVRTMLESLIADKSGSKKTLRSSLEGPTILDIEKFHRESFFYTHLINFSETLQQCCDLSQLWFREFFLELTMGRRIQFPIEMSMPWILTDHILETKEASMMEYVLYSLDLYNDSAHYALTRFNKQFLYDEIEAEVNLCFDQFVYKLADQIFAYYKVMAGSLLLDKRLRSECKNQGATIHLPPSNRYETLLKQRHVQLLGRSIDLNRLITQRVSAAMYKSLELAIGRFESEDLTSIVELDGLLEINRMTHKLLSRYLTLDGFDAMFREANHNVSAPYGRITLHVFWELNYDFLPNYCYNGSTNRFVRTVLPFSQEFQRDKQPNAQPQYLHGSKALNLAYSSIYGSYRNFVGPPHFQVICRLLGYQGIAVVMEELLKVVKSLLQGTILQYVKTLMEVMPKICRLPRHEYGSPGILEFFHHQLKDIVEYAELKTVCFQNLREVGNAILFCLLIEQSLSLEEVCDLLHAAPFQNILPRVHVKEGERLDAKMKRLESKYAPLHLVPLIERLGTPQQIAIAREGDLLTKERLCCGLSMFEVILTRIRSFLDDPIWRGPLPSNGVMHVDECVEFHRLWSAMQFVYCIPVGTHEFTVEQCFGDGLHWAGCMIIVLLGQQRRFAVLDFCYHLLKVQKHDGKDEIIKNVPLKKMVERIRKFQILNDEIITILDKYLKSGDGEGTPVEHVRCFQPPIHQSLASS
T3 sequence (P21127 whole entry): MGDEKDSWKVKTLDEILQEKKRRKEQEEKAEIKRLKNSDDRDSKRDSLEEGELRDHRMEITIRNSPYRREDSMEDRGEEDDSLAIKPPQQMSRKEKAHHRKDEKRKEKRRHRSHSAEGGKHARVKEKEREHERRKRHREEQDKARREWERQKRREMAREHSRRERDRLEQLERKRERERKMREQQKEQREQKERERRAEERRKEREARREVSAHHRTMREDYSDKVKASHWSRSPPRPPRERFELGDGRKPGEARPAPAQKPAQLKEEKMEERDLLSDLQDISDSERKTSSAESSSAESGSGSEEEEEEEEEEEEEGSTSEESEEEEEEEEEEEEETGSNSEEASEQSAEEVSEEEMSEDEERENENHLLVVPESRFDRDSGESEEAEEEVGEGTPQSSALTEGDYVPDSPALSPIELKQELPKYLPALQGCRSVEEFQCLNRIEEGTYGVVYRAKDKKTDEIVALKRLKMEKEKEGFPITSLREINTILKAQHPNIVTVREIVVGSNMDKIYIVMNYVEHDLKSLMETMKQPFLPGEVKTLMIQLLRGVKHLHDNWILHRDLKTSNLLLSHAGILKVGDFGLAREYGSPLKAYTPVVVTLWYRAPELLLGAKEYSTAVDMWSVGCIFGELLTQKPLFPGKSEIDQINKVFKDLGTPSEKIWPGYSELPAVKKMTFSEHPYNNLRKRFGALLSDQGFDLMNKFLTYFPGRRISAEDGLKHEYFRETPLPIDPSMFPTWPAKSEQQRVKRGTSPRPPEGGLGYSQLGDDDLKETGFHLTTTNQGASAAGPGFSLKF

Molecule CC(C)(CN)c1nc(-c2ccc(Cl)c(O)c2)c(-c2ccncc2)[nH]1 [MMV030084] has a CC50 (in vitro) of 41.5 µM, an IC50 (ed. Dd2-B2 TKL3I1250M) of 0.307 µM and an IC50 (ed. Dd2-B2 TKL3T1268R) of 0.317 µM. The IC50 [1] was at least 30 µM, the IC50 [2] was at least 30 µM and the IC50 [3] was at least 30 µM.
